This passage reports IC50 results from patent US12215112B2, “CD151 inhibitors” (ESFAM BIOTECH PTY LTD, priority 2020, dated 2025).

Each structure is given as a SMILES string.

The experiment relates to PC3 cells. The experiment is described as follows: xCELLigence RTCA real-time cell invasion assay (CIM plate, Matrigel) on PC3 prostate cancer cells. Particulars: Homo sapiens, PC-3, compound 25 uM to 1 uM, cell index monitored for 72 hours, four-parameter dose-response curve, read-out: IC50, Effect of compounds on the invention on prostate cancer cells. Format: cell-based. As to the method: The media antibiotics and serum were purchased from Invitrogen (Life Technologies). PC3 cells were purchased from ATCC (Granville, NSW, Australia). PC3 cells were expanded in cell culture T75 flasks with vented cap and then preserved in low passage number. The medium used for PC3 cells was RPMI (GlutaMAX) supplemented with 10% FCS and 1% penicillin/streptomycin (culture media). The cells were maintained at 37° C. in a humidified 95% (v/v) air/5% (v/v) CO2 environment and were grown up to 80% confluence.
XCELLigence® real-time cell analysis (RTCA) instrument (ACEA Biosciences), 16-well ACEA CIM-Plates, 16-well ACEA E-Plat and assembly tool were purchased from ELITechGroup empowering IVD (Braeside, Australia). The Matrigel was purchased from Corning (Australia).
To measure cell invasion under compound treatment the upper chamber of the CIM plate was coated with 5% Matrigel diluted in SF RPMI (20 μl) and incubated in a 37° C. tissue culture incubator for four hours. Using the assembly tool to support the chambers the lower chamber was filled with (160 μl) of culture media containing the compound in specific concertation from 25 uM to 1 uM and two controls (DMSO 0.1% and ESFAM 4C 10 uM) (see the schematic in FIG. 1). Once the upper chamber was placed on the top of the lower chamber it was loaded with (40 μl) serum-free (SF) RPMI containing the compound as previously stated. After one hour calibration in 37° C., plates were placed into the xCELLigence station, and the base-line electric impedance was measured to confirm that all wells and connections were working properly. In case of connection problem, the software automatically informs the researcher about the nature of the problem in the message section. Subsequently cells were trypsinized and upon harvesting and counting they were diluted in SF RPMI to desired density (3×10^4) and seeded (100 μl) in the wells. After 30 minutes of incubation in room-temperature to allow cell attachment the plates were loaded in the xCELLigence RTCA DP machine. The cell invasion was monitored in real-time for the duration of 72 hours. […]
The xCELLigence system automatically monitored the electrical impedance value of each well and expressed as a cell index (CI) value for the duration of 72 hours. The data for treatments was automatically grouped as the mean±standard deviation. The software version used in these experiments is 1.2.1. The electronic record of the experimental data is automatically saved in file that cannot be altered or changed by the researcher.
Statistical analysis was performed using Microsoft® Office EXCEL and GraphPad Prism 7. The IC50 was calculated from the four-parameter dose-response curve (log(inhibitor) vs. response-variable slopes). Where the row-data was inserted in GraphPad Prism 7 (Dose response x-log(dose)) and analysed for XY nonlinear regression (curve fit), dose response-inhibition, log(inhibitor) vs response variable slope (four parameters). For the IC90 calculation the log(IC50)=log(IC90)-(1/HillSlope)*log(9) equation was used in EXCEL based on the raw data extracted from xCELLigence system and the dose-response curve.
Regarding `COc1cc(NC(=O)c2cc3nc(N4Cc5ccccc5C4)cc(-c4cn[nH]c4)n3n2)cc(OC)c1` [Compound 51, N-(3,5-dimethoxyphenyl)-5-(isoindolin-2-yl)-7-(1H-pyrazol-4-yl)pyrazolo[1,5-a]pyrimidine-2-carboxamide], the IC50 (as a rule, the concentration that gives 50% inhibition) was found to be 3.55 µM.
Consider `COc1cc(Cl)cc(NC(=O)c2cc3nc(N4Cc5ccccc5C4)cc(-c4cn[nH]c4)n3n2)c1` [Compound 52, N-(3-chloro-5-methoxyphenyl)-5-(isoindolin-2-yl)-7-(1H-pyrazol-4-yl)pyrazolo[1,5-a]pyrimidine-2-carboxamide], for which the IC50 turned out to be 5.52 µM.
With `COc1cc(NC(=O)c2cc3nc(N4Cc5ccccc5C4)cc(-c4cn[nH]c4)n3n2)ccc1Cl` [Compound 53, N-(4-chloro-3-methoxyphenyl)-5-(isoindolin-2-yl)-7-(1H-pyrazol-4-yl)pyrazolo[1,5-a]pyrimidine-2-carboxamide], the IC50 stood at 2.76 µM.
As for `COc1ccc(NC(=O)c2cc3nc(N4Cc5ccccc5C4)cc(-c4cn[nH]c4)n3n2)cc1` [Compound 54, 5-(isoindolin-2-yl)-N-(4-methoxyphenyl)-7-(1H-pyrazol-4-yl)pyrazolo[1,5-a]pyrimidine-2-carboxamide], the figure is 1.65 µM; as for `CCOc1ccc(NC(=O)c2cc3nc(N4Cc5ccccc5C4)cc(-c4cn[nH]c4)n3n2)cc1` [Compound 55, N-(4-ethoxyphenyl)-5-(isoindolin-2-yl)-7-(1H-pyrazol-4-yl)pyrazolo[1,5-a]pyrimidine-2-carboxamide], 7.86 µM.
`CC(C)Oc1ccc(NC(=O)c2cc3nc(N4Cc5ccccc5C4)cc(-c4cn[nH]c4)n3n2)cc1` [Compound 56, 5-(isoindolin-2-yl)-N-(4-isopropoxyphenyl)-7-(1H-pyrazol-4-yl)pyrazolo[1,5-a]pyrimidine-2-carboxamide]: the IC50 stood at 2.83 µM.
As for `COc1cccc(NC(=O)c2cc3nc(N4Cc5ccccc5C4)cc(-c4cnn(C)c4)n3n2)c1` [Compound 57, 5-(isoindolin-2-yl)-N-(3-methoxyphenyl)-7-(1-methyl-1H-pyrazol-4-yl)pyrazolo[1,5-a]pyrimidine-2-carboxamide], the IC50 turned out to be 2.59 µM.
For `Cn1cc(-c2cc(N3Cc4ccccc4C3)nc3cc(C(=O)Nc4cccc(O)c4)nn23)cn1` [Compound 58, N-(3-hydroxyphenyl)-5-(isoindolin-2-yl)-7-(1-methyl-1H-pyrazol-4-yl)pyrazolo[1,5-a]pyrimidine-2-carboxamide], the IC50 came to 10.1 µM.
The result for `COc1cccc(NC(=O)c2cc3nc(N4Cc5ccccc5C4)cc(-c4c(C)nn(C)c4C)n3n2)c1` [Compound 59, 5-(isoindolin-2-yl)-N-(3-methoxyphenyl)-7-(1,3,5-trimethyl-1H-pyrazol-4-yl)pyrazolo[1,5-a]pyrimidine-2-carboxamide] reads 4.38 µM; that for `Cc1nn(C)c(C)c1-c1cc(N2Cc3ccccc3C2)nc2cc(C(=O)Nc3cccc(O)c3)nn12` [Compound 60, N-(3-hydroxyphenyl)-5-(isoindolin-2-yl)-7-(1,3,5-trimethyl-1H-pyrazol-4-yl)pyrazolo[1,5-a]pyrimidine-2-carboxamide], 7.39 µM.
`COc1cccc(NC(=O)c2cc3nc(N4Cc5ccc(Cl)cc5C4)cc(-c4cn[nH]c4)n3n2)c1` [Compound 61, 5-(5-chloroisoindolin-2-yl)-N-(3-methoxyphenyl)-7-(1H-pyrazol-4-yl)pyrazolo[1,5-a]pyrimidine-2-carboxamide]: the concentration for half-maximal inhibition (IC50) is 3.68 µM.
With `O=C(Nc1cccc(O)c1)c1cc2nc(N3Cc4ccc(Cl)cc4C3)cc(-c3cn[nH]c3)n2n1` [Compound 62, 5-(5-chloroisoindolin-2-yl)-N-(3-hydroxyphenyl)-7-(1H-pyrazol-4-yl)pyrazolo[1,5-a]pyrimidine-2-carboxamide], the IC50 was found to be 5.22 µM.
As for `COc1cccc(NC(=O)c2cc3nc(N4Cc5ccc(F)cc5C4)cc(-c4cn[nH]c4)n3n2)c1` [Compound 63, 5-(5-fluoroisoindolin-2-yl)-N-(3-methoxyphenyl)-7-(1H-pyrazol-4-yl)pyrazolo[1,5-a]pyrimidine-2-carboxamide], the figure is 4.65 µM; as for `O=C(Nc1cccc(O)c1)c1cc2nc(N3Cc4ccc(F)cc4C3)cc(-c3cn[nH]c3)n2n1` [Compound 64, 5-(5-fluoroisoindolin-2-yl)-N-(3-hydroxyphenyl)-7-(1H-pyrazol-4-yl)pyrazolo[1,5-a]pyrimidine-2-carboxamide], 9.59 µM; as for `COc1cccc(NC(=O)c2nn3c(-c4cn[nH]c4)cc(N4Cc5ccccc5C4)nc3c2C)c1` [Compound 66, 5-(isoindolin-2-yl)-N-(3-methoxyphenyl)-3-methyl-7-(1H-pyrazol-4-yl)pyrazolo[1,5-a]pyrimidine-2-carboxamide], 19.7 µM.
On to `Cc1c(C(=O)Nc2cccc(OC(F)(F)F)c2)nn2c(-c3cn[nH]c3)cc(N3Cc4ccccc4C3)nc12` [Compound 67, 5-(isoindolin-2-yl)-3-methyl-7-(1H-pyrazol-4-yl)-N-(3-(trifluoromethoxy)phenyl)pyrazolo[1,5-a]pyrimidine-2-carboxamide], for which the half-maximal inhibitory concentration (IC50) came out at 5.94 µM.
Turning to `Cc1c(C(=O)Nc2cccc(O)c2)nn2c(-c3cn[nH]c3)cc(N(C)Cc3ccccc3)nc12` [Compound 68, 5-(benzyl(methyl)amino)-N-(3-hydroxyphenyl)-3-methyl-7-(1H-pyrazol-4-yl)pyrazolo[1,5-a]pyrimidine-2-carboxamide], the half-inhibitory concentration (IC50) worked out at 5.76 µM.
As for `COc1cccc(NC(=O)c2nn3c(-c4cn[nH]c4)cc(N(C)Cc4ccccc4)nc3c2C)c1` [Compound 69, 5-(benzyl(methyl)amino)-N-(3-methoxyphenyl)-3-methyl-7-(1H-pyrazol-4-yl)pyrazolo[1,5-a]pyrimidine-2-carboxamide], the IC50 is 1.9 µM.
The result for `Cc1c(C(=O)Nc2cccc(OC(F)(F)F)c2)nn2c(-c3cn[nH]c3)cc(N(C)Cc3ccccc3)nc12` [Compound 70, 5-(benzyl(methyl)amino)-3-methyl-7-(1H-pyrazol-4-yl)-N-(3-(trifluoromethoxy)phenyl)pyrazolo[1,5-a]pyrimidine-2-carboxamide] reads 5.87 µM; that for `CC(C)c1c(C(=O)Nc2cccc(O)c2)nn2c(-c3cn[nH]c3)cc(N3Cc4ccccc4C3)nc12` [Compound 71, N-(3-hydroxyphenyl)-5-(isoindolin-2-yl)-3-isopropyl-7-(1H-pyrazol-4-yl)pyrazolo[1,5-a]pyrimidine-2-carboxamide], 3.15 µM; that for `COc1cccc(NC(=O)c2nn3c(-c4cn[nH]c4)cc(N4Cc5ccccc5C4)nc3c2C(C)C)c1` [Compound 72, 5-(isoindolin-2-yl)-3-isopropyl-N-(3-methoxyphenyl)-7-(1H-pyrazol-4-yl)pyrazolo[1,5-a]pyrimidine-2-carboxamide], 2.91 µM.
On to `CC(C)c1c(C(=O)Nc2cccc(OC(F)(F)F)c2)nn2c(-c3cn[nH]c3)cc(N3Cc4ccccc4C3)nc12` [Compound 73, 5-(isoindolin-2-yl)-3-isopropyl-7-(1H-pyrazol-4-yl)-N-(3-(trifluoromethoxy)phenyl)pyrazolo[1,5-a]pyrimidine-2-carboxamide], for which the IC50 is 4.91 µM.
Consider `CC(C)c1c(C(=O)Nc2cccc(O)c2)nn2c(-c3cn[nH]c3)cc(N(C)Cc3ccccc3)nc12` [Compound 74, 5-(benzyl(methyl)amino)-N-(3-hydroxyphenyl)-3-isopropyl-7-(1H-pyrazol-4-yl)pyrazolo[1,5-a]pyrimidine-2-carboxamide], for which the concentration for half-maximal inhibition (IC50) amounted to 1.34 µM.
